Reference: PubChem BioAssay AID1918942 (Molecular Pharmacology Branch, DTP, NCI, 2023)

Test system: 743489-274-T-PDC complex spheroid viability
Experiment: Anticancer human tumor 743489-274-T-PDC patient-derived renal cell carcinoma cell line growth inhibition
Details: for IC50: curve of first compound; for viability, T/C: stronger effect = lower value
Outline: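 Drug combinations with the LSD1 inhibitor iadademstat tested on tumor cells co-cultured as spheroids with endothelial cells and mesenchymal stem cells. Concentrations descended in half-log increments from clinical Cmax or 10 microM.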

[1] = second compound 0.1 µM, first compound 0.000949 µM
[2] = second compound 0.1 µM, first compound 0.003 µM
[3] = second compound 0.1 µM, first compound 0.00949 µM
[4] = second compound 0.1 µM, first compound 0.03 µM
[5] = second compound 0.1 µM, first compound 0.0949 µM
[6] = second compound 0.1 µM, first compound 0.3 µM
[7] = second compound 0.316 µM, first compound 0.000949 µM
[8] = second compound 0.316 µM, first compound 0.003 µM
[9] = second compound 0.316 µM, first compound 0.00949 µM
[10] = second compound 0.316 µM, first compound 0.03 µM
[11] = second compound 0.316 µM, first compound 0.0949 µM
[12] = second compound 0.316 µM, first compound 0.3 µM
[13] = second compound 1 µM, first compound 0.000949 µM
[14] = second compound 1 µM, first compound 0.003 µM
[15] = second compound 1 µM, first compound 0.00949 µM
[16] = second compound 1 µM, first compound 0.03 µM
[17] = second compound 1 µM, first compound 0.0949 µM
[18] = second compound 1 µM, first compound 0.3 µM
[19] = second compound 3.16 µM, first compound 0.000949 µM
[20] = second compound 3.16 µM, first compound 0.003 µM
[21] = second compound 3.16 µM, first compound 0.00949 µM
[22] = second compound 3.16 µM, first compound 0.03 µM
[23] = second compound 3.16 µM, first compound 0.0949 µM
[24] = second compound 3.16 µM, first compound 0.3 µM
[25] = second compound 10 µM, first compound 0.000949 µM
[26] = second compound 10 µM, first compound 0.003 µM
[27] = second compound 10 µM, first compound 0.00949 µM
[28] = second compound 10 µM, first compound 0.03 µM
[29] = second compound 10 µM, first compound 0.0949 µM
[30] = second compound 10 µM, first compound 0.3 µM
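Also: spheroids exposed to compounds for 7 days before readout.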
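For viability, T/C in this document: 100% = DMSO vehicle control wells.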

For CC[C@@]1(O)C(=O)OCc2c1cc1n(c2=O)Cc2cc3c(CN(C)C)c(O)ccc3nc2-1 + NC1CC1c1ccc(-c2cccc(O)c2)cc1, the IC50 (second compound 0.1 µM) was over 0.1 µM, the IC50 (second compound 0.316 µM) was over 0.1 µM and the IC50 (second compound 1 µM) was over 0.1 µM. The IC50 (second compound 3.16 µM) was 0.0587 µM, the IC50 (second compound 10 µM) was over 0.1 µM and the viability, T/C (second compound 0.1 µM, first compound 0.000316 µM) was 98.9%. The viability, T/C (second compound 0.1 µM, first compound 0.001 µM) was 95.7%, the viability, T/C (second compound 0.1 µM, first compound 0.00316 µM) was 104% and the viability, T/C (second compound 0.1 µM, first compound 0.01 µM) was 97.8%. The viability, T/C (second compound 0.1 µM, first compound 0.0316 µM) was 66.4%, the viability, T/C (second compound 0.1 µM, first compound 0.1 µM) was 55.7% and the viability, T/C (second compound 0.316 µM, first compound 0.000316 µM) was 103%. The viability, T/C (second compound 0.316 µM, first compound 0.001 µM) was 99.6%, the viability, T/C (second compound 0.316 µM, first compound 0.00316 µM) was 89.7% and the viability, T/C (second compound 0.316 µM, first compound 0.01 µM) was 74.3%. For the same compound, the viability, T/C (second compound 0.316 µM, first compound 0.0316 µM) was 67.9%, the viability, T/C (second compound 0.316 µM, first compound 0.1 µM) was 53.9% and the viability, T/C (second compound 1 µM, first compound 0.000316 µM) was 97.7%. It also gave a viability, T/C (second compound 1 µM, first compound 0.001 µM) of 100%, a viability, T/C (second compound 1 µM, first compound 0.00316 µM) of 80% and a viability, T/C (second compound 1 µM, first compound 0.01 µM) of 76.3%. For the same compound, the viability, T/C (second compound 1 µM, first compound 0.0316 µM) was 68.5%, the viability, T/C (second compound 1 µM, first compound 0.1 µM) was 55.3% and the viability, T/C (second compound 3.16 µM, first compound 0.000316 µM) was 101%. It also gave a viability, T/C (second compound 3.16 µM, first compound 0.001 µM) of 86.7%, a viability, T/C (second compound 3.16 µM, first compound 0.00316 µM) of 78.3% and a viability, T/C (second compound 3.16 µM, first compound 0.01 µM) of 69.9%. For the same compound, the viability, T/C (second compound 3.16 µM, first compound 0.0316 µM) was 53.8%, the viability, T/C (second compound 3.16 µM, first compound 0.1 µM) was 45% and the viability, T/C (second compound 10 µM, first compound 0.000316 µM) was 120%. It also gave a viability, T/C (second compound 10 µM, first compound 0.001 µM) of 93%, a viability, T/C (second compound 10 µM, first compound 0.00316 µM) of 90.6% and a viability, T/C (second compound 10 µM, first compound 0.01 µM) of 70.5%. It also gave a viability, T/C (second compound 10 µM, first compound 0.0316 µM) of 77.6% and a viability, T/C (second compound 10 µM, first compound 0.1 µM) of 50.3%.

Work on CCc1c2c(nc3ccc(O)cc13)-c1cc3c(c(=O)n1C2)COC(=O)[C@]3(O)CC + NC1CC1c1ccc(-c2cccc(O)c2)cc1 yielded an IC50 (second compound 0.1 µM) of 0.00488 µM, an IC50 (second compound 0.316 µM) of 0.0024 µM and an IC50 (second compound 1 µM) of 0.00271 µM. It also gave an IC50 (second compound 3.16 µM) of 0.00226 µM, an IC50 (second compound 10 µM) of 0.00352 µM and a viability, T/C [1] of 62.5%. For the same compound, the viability, T/C [2] was 52.5%, the viability, T/C [3] was 47.3% and the viability, T/C [4] was 33.7%. It also gave a viability, T/C [5] of 36.4%, a viability, T/C [6] of 33.5% and a viability, T/C [7] of 54.3%. For the same compound, the viability, T/C [8] was 51.7%, the viability, T/C [9] was 45.5% and the viability, T/C [10] was 35%. The viability, T/C [11] was 36.7%, the viability, T/C [12] was 40.2% and the viability, T/C [13] was 60.5%. For the same compound, the viability, T/C [14] was 51.9%, the viability, T/C [15] was 41.3% and the viability, T/C [16] was 39%. For the same compound, the viability, T/C [17] was 43.9%, the viability, T/C [18] was 42.7% and the viability, T/C [19] was 57%. It also gave a viability, T/C [20] of 48.7%, a viability, T/C [21] of 42.3% and a viability, T/C [22] of 33.5%. It also gave a viability, T/C [23] of 36.7%, a viability, T/C [24] of 34.5% and a viability, T/C [25] of 58.7%. It also gave a viability, T/C [26] of 50.8%, a viability, T/C [27] of 42.5% and a viability, T/C [28] of 35.3%. It also gave a viability, T/C [29] of 32% and a viability, T/C [30] of 38.8%.

For Nc1ccn(C2OC(CO)C(O)C2(F)F)c(=O)n1 (stereo not given) + NC1CC1c1ccc(-c2cccc(O)c2)cc1, the IC50 (second compound 0.1 µM) was over 0.3 µM, the IC50 (second compound 0.316 µM) was 0.0465 µM and the IC50 (second compound 1 µM) was 0.153 µM. It also gave an IC50 (second compound 3.16 µM) of 0.0255 µM, an IC50 (second compound 10 µM) of 0.11 µM and a viability, T/C [1] of 62.5%. The viability, T/C [2] was 58.5%, the viability, T/C [3] was 95.2% and the viability, T/C [4] was 58%. It also gave a viability, T/C [5] of 63.7%, a viability, T/C [6] of 48.5% and a viability, T/C [7] of 67.2%. It also gave a viability, T/C [8] of 56.3%, a viability, T/C [9] of 99.8% and a viability, T/C [10] of 51.4%. It also gave a viability, T/C [11] of 51.2%, a viability, T/C [12] of 44.2% and a viability, T/C [13] of 57.1%. The viability, T/C [14] was 51.7%, the viability, T/C [15] was 87% and the viability, T/C [16] was 53.9%. For the same compound, the viability, T/C [17] was 46.5%, the viability, T/C [18] was 47.1% and the viability, T/C [19] was 58.4%. It also gave a viability, T/C [20] of 62.2%, a viability, T/C [21] of 97.8% and a viability, T/C [22] of 46.3%. For the same compound, the viability, T/C [23] was 44%, the viability, T/C [24] was 48.4% and the viability, T/C [25] was 64.9%. For the same compound, the viability, T/C [26] was 51.4%, the viability, T/C [27] was 87.2% and the viability, T/C [28] was 47.6%. The viability, T/C [29] was 46.2% and the viability, T/C [30] was 44.9%.
